Data from article PMC10301603, “Potent and Selective Benzothiazole-Based Antimitotics with Improved Water Solubility: Design, Synthesis, and Evaluation as Novel Anticancer Agents” (Pharmaceutics, 2023).
In brackets after ≈: the same amount, converted by molar mass.

Tested on: not listed separately
Assay: Aqueous solubility, shake-flask method
Assay type: physicochemical
Settings: pH 7.0 buffer, pH 7, aqueous buffer, thermodynamic from solid, shaking flask, buffered media at pH 7.0, mean of three
Description: The aqueous solubility of compounds was measured in a Helios Alfa Spectrophotometer. Calibration lines at the maximum wavelength of absorbance were determined for each compound. Then, following the shake-flask method, a suspension of 5 mg of each compound in 500 µL in pH 7.0 buffer was stirred for 72 h at room temperature. The mixture was then filtrated over a […] filter to remove the insoluble fraction. The concentration of the compound in the resulting saturated solution was determined via UV absorbance measurement and interpolation in the calibration line. The aqueous solubility values are given as the average of three independent measurements.

Row | Structure (SMILES) | solubility at 72 h [µg/mL]
1 | COc1ccc2nc(N(C=O)Cc3[nH]cnc3C)sc2c1 [Compound 16, N-(6-methoxybenzo[d]thiazol-2-yl)-N-((4-methyl-1H-imidazol-5-yl)methyl)formamide] | 165 (≈ 546 µM)
2 | COc1ccc2nc(N(C=O)Cc3ccc4ccccc4c3)sc2c1 [Compound 18, N-(6-methoxybenzo[d]thiazol-2-yl)-N-(naphthalen-2-ylmethyl)formamide] | < 9

Tested on: HT-29 cells
Assay: Cell growth inhibition assay (MTT)
Assay type: cell-based, human
Settings: Homo sapiens, HT-29, 72 h after drug exposure
Description: (§1) The cell lines were obtained from ATTC (Manassas, VA, USA). HeLa (human cervix epithelioid carcinoma), MCF7 (human breast adenocarcinoma), HepG2 (human hepatocellular carcinoma), U87 MG (human glioblastoma), T98G (human glioblastoma), GL261 (murine glioma), LNCaP (human prostate cancer), PC-3 (human prostate cancer), and HEK-293 (human embryonic kidney) were grown in Dulbecco’s modified Eagle’s medium (DMEM, Gibco, Waltham, MA, USA), supplemented with 10% (v/v) heat-inactivated fetal bovine serum (HIFBS, Sigma-Aldrich, St. Louis, MO, USA)), 2 mM L-glutamine, 100 μg/mL streptomycin, and 100 units/mL penicillin (Gibco, Waltham, MA, USA) at 37 °C in saturated humidity atmosphere containing 95% air and 5% CO2. Cell line HT-29 (human colon carcinoma) was grown in Roswell Park Memorial Institute (RPMI) 1640 medium (Gibco, Whaltman, MA, USA) supplemented with 10% HIFBS, 100 μg/mL streptomycin, and 100 units/mL penicillin (Gibco, Whaltman, MA, USA) at 37 °C in humidified 95% air and 5% CO2 atmosphere. MycoAlert kit (Lonza, Norwest, Australia) was used to routinely check the presence of mycoplasma, and only mycoplasma-free cells were employed in the experiments.
(§2) Cells were plated in 96-well plates (100 µL/well) at the following concentrations: 30,000 cells/mL (HepG2, U87 MG, T98G, C6, LNCaP, PC3, and HT-29 cells) or 15,000 cells/mL (HeLa and MCF-7 cells). Previous experiments were performed to choose the optimal cell concentration (70–80% confluence) and avoid the formation of cell aggregates. Cells were incubated in complete DMEM or RPMI 1640 medium (see above) at 37 °C and 5% CO2 atmosphere for 24 h to allow for cell attachment to the plate. Then, every compound was added (10 µL/well) to a final concentration of 10 µM. Non-treated cells were used as negative controls. The antiproliferative activity of compounds was measured 72 h after the treatments using the MTT reagent (3-[4,5-dimethylthiazol-2-yl]-2,5-diphenyltetrazolium bromide), (MTT Thiazolyl Blue Tetrazolium Bromide, Sigma-Aldrich, St. Louis, MO, USA) dissolved in PBS at 5 mg/mL. Compounds showing antiproliferative effects at 10 µM were selected to determine their IC50 value. For that purpose, compounds were used at different concentrations ranging from 10^−10 to 10^−2 M. Measurements were performed in triplicate, and each experiment was repeated three times. The IC50 value was determined for every compound using Origin software (OriginLab, Washington, USA). To study the sensitivity to MDR efflux pumps of compounds, the IC50 values were determined by following the same procedure but in the presence of verapamil (final concentration of 10 µM).

Row | Structure (SMILES) | IC50 [µM]
3 | COc1ccc2nc(N(C=O)Cc3[nH]cnc3C)sc2c1 [Compound 16, N-(6-methoxybenzo[d]thiazol-2-yl)-N-((4-methyl-1H-imidazol-5-yl)methyl)formamide] | > 10
4 | Cn1nnc2c(C(N)=O)ncn2c1=O [TMZ, temozolomide, reference compound] | > 10
5 | COc1ccc2nc(N(C=O)Cc3ccc4ccccc4c3)sc2c1 [Compound 18, N-(6-methoxybenzo[d]thiazol-2-yl)-N-(naphthalen-2-ylmethyl)formamide] | > 10

Tested on: HeLa cells
Assay: Cell growth inhibition assay (MTT)
Assay type: cell-based, human
Settings: Homo sapiens, HeLa, 72 h after drug exposure
Description: as §1, §2

Row | Structure (SMILES) | IC50 [µM]
6 | COc1ccc2nc(N(C=O)Cc3[nH]cnc3C)sc2c1 [Compound 16, N-(6-methoxybenzo[d]thiazol-2-yl)-N-((4-methyl-1H-imidazol-5-yl)methyl)formamide] | > 10
7 | Cn1nnc2c(C(N)=O)ncn2c1=O [TMZ, temozolomide, reference compound] | > 10
8 | COc1ccc2nc(N(C=O)Cc3ccc4ccccc4c3)sc2c1 [Compound 18, N-(6-methoxybenzo[d]thiazol-2-yl)-N-(naphthalen-2-ylmethyl)formamide] | > 10

Tested on: HepG2 cells
Assay: Cell growth inhibition assay (MTT)
Assay type: cell-based, human
Settings: Homo sapiens, HepG2, 72 h after drug exposure
Description: as §1, §2

Row | Structure (SMILES) | IC50 [µM]
9 | COc1ccc2nc(N(C=O)Cc3[nH]cnc3C)sc2c1 [Compound 16, N-(6-methoxybenzo[d]thiazol-2-yl)-N-((4-methyl-1H-imidazol-5-yl)methyl)formamide] | > 10
10 | Cn1nnc2c(C(N)=O)ncn2c1=O [TMZ, temozolomide, reference compound] | > 10
11 | COc1ccc2nc(N(C=O)Cc3ccc4ccccc4c3)sc2c1 [Compound 18, N-(6-methoxybenzo[d]thiazol-2-yl)-N-(naphthalen-2-ylmethyl)formamide] | > 10

Tested on: LNCaP cells
Assay: Cell growth inhibition assay (MTT)
Assay type: cell-based, human
Settings: Homo sapiens, LNCaP, 72 h after drug exposure
Description: as §1, §2

Row | Structure (SMILES) | IC50 [µM]
12 | COc1ccc2nc(N(C=O)Cc3[nH]cnc3C)sc2c1 [Compound 16, N-(6-methoxybenzo[d]thiazol-2-yl)-N-((4-methyl-1H-imidazol-5-yl)methyl)formamide] | > 10
13 | Cn1nnc2c(C(N)=O)ncn2c1=O [TMZ, temozolomide, reference compound] | > 10
14 | COc1ccc2nc(N(C=O)Cc3ccc4ccccc4c3)sc2c1 [Compound 18, N-(6-methoxybenzo[d]thiazol-2-yl)-N-(naphthalen-2-ylmethyl)formamide] | > 10

Tested on: MCF7 cells
Assay: Cell growth inhibition assay (MTT)
Assay type: cell-based, human
Settings: Homo sapiens, MCF7; MTT, 72 h after drug exposure
Description: as §1, §2

Row | Structure (SMILES) | IC50 [µM]
15 | COc1ccc2nc(N(C=O)Cc3[nH]cnc3C)sc2c1 [Compound 16, N-(6-methoxybenzo[d]thiazol-2-yl)-N-((4-methyl-1H-imidazol-5-yl)methyl)formamide] | > 10
16 | Cn1nnc2c(C(N)=O)ncn2c1=O [TMZ, temozolomide, reference compound] | > 10
17 | COc1ccc2nc(N(C=O)Cc3ccc4ccccc4c3)sc2c1 [Compound 18, N-(6-methoxybenzo[d]thiazol-2-yl)-N-(naphthalen-2-ylmethyl)formamide] | > 10

Tested on: PC-3 cells
Assay: Cell growth inhibition assay (MTT)
Assay type: cell-based, human
Settings: Homo sapiens, PC-3, 72 h after drug exposure
Description: as §1, §2

Row | Structure (SMILES) | IC50 [µM]
18 | COc1ccc2nc(N(C=O)Cc3[nH]cnc3C)sc2c1 [Compound 16, N-(6-methoxybenzo[d]thiazol-2-yl)-N-((4-methyl-1H-imidazol-5-yl)methyl)formamide] | > 10
19 | Cn1nnc2c(C(N)=O)ncn2c1=O [TMZ, temozolomide, reference compound] | > 10
20 | COc1ccc2nc(N(C=O)Cc3ccc4ccccc4c3)sc2c1 [Compound 18, N-(6-methoxybenzo[d]thiazol-2-yl)-N-(naphthalen-2-ylmethyl)formamide] | > 10

Tested on: T98G cells
Assay: Cell growth inhibition assay (MTT)
Assay type: cell-based, human
Settings: Homo sapiens, T98G, 72 h after drug exposure
Description: as §1, §2

Row | Structure (SMILES) | IC50 [µM]
21 | COc1ccc2nc(N(C=O)Cc3[nH]cnc3C)sc2c1 [Compound 16, N-(6-methoxybenzo[d]thiazol-2-yl)-N-((4-methyl-1H-imidazol-5-yl)methyl)formamide] | > 10
22 | Cn1nnc2c(C(N)=O)ncn2c1=O [TMZ, temozolomide, reference compound] | 241
23 | COc1ccc2nc(N(C=O)Cc3ccc4ccccc4c3)sc2c1 [Compound 18, N-(6-methoxybenzo[d]thiazol-2-yl)-N-(naphthalen-2-ylmethyl)formamide] | > 10

Tested on: U87MG cells
Assay: Cell growth inhibition assay (MTT)
Assay type: cell-based, human
Settings: Homo sapiens, U-87 MG; MTT, 72 h after drug exposure
Description: as §1, §2

Row | Structure (SMILES) | IC50 [µM]
24 | COc1ccc2nc(N(C=O)Cc3[nH]cnc3C)sc2c1 [Compound 16, N-(6-methoxybenzo[d]thiazol-2-yl)-N-((4-methyl-1H-imidazol-5-yl)methyl)formamide] | > 10
25 | Cn1nnc2c(C(N)=O)ncn2c1=O [TMZ, temozolomide, reference compound] | 135
26 | COc1ccc2nc(N(C=O)Cc3ccc4ccccc4c3)sc2c1 [Compound 18, N-(6-methoxybenzo[d]thiazol-2-yl)-N-(naphthalen-2-ylmethyl)formamide] | > 10

Tested on: GL261 cells
Assay: Cell growth inhibition assay (MTT)
Assay type: cell-based, murine
Settings: Mus musculus, GL261, 72 h after drug exposure
Description: as §1, §2

Row | Structure (SMILES) | IC50 [µM]
27 | COc1ccc2nc(N(C=O)Cc3[nH]cnc3C)sc2c1 [Compound 16, N-(6-methoxybenzo[d]thiazol-2-yl)-N-((4-methyl-1H-imidazol-5-yl)methyl)formamide] | > 10
28 | Cn1nnc2c(C(N)=O)ncn2c1=O [TMZ, temozolomide, reference compound] | 179
29 | COc1ccc2nc(N(C=O)Cc3ccc4ccccc4c3)sc2c1 [Compound 18, N-(6-methoxybenzo[d]thiazol-2-yl)-N-(naphthalen-2-ylmethyl)formamide] | > 10

Tested on: HEK-293 cells
Assay: Cell growth inhibition assay (MTT), non-tumorigenic cells
Assay type: cell-based, human
Settings: Homo sapiens, HEK293, 72 h after drug exposure, non-tumorigenic cell line
Description: as §1, §2

Row | Structure (SMILES) | IC50 [µM]
30 | COc1ccc2nc(N(C=O)Cc3[nH]cnc3C)sc2c1 [Compound 16, N-(6-methoxybenzo[d]thiazol-2-yl)-N-((4-methyl-1H-imidazol-5-yl)methyl)formamide] | > 10
31 | Cn1nnc2c(C(N)=O)ncn2c1=O [TMZ, temozolomide, reference compound] | > 10
32 | COc1ccc2nc(N(C=O)Cc3ccc4ccccc4c3)sc2c1 [Compound 18, N-(6-methoxybenzo[d]thiazol-2-yl)-N-(naphthalen-2-ylmethyl)formamide] | > 10

Tested on: HT-29 cells
Assay: Cell growth inhibition (MTT) in the presence of 10 µM verapamil (sensitivity to MDR efflux pumps)
Assay type: cell-based, human
Settings: 10 µM verapamil (P-gp/MDR1 inhibitor)
Description: as §2

Row | Structure (SMILES) | IC50 [µM]
33 | COc1ccc2nc(N(C=O)Cc3[nH]cnc3C)sc2c1 [Compound 16, N-(6-methoxybenzo[d]thiazol-2-yl)-N-((4-methyl-1H-imidazol-5-yl)methyl)formamide] | > 10
34 | Cn1nnc2c(C(N)=O)ncn2c1=O [TMZ, temozolomide, reference compound] | > 10
35 | COc1ccc2nc(N(C=O)Cc3ccc4ccccc4c3)sc2c1 [Compound 18, N-(6-methoxybenzo[d]thiazol-2-yl)-N-(naphthalen-2-ylmethyl)formamide] | > 10

Tested on: bovine brain tubulin
Assay: Tubulin polymerization inhibition (turbidimetry)
Assay type: biochemical
Settings: 10 µM
Description: Microtubular protein was isolated from calf brain following the modified Shelanski method, based on temperature-dependent assembly/disassembly of tubulin [45]. The protein was stored at −80 °C, and its concentration was determined using the Bradford method before each use. Tubulin polymerization, which occurs when heating a buffered tubulin sample from 4 °C to 37 °C, is accompanied by an increase in the absorbance (at 450 nm) of the sample that was monitored by a Helios α spectrophotometer. […] Then, the temperature was adjusted to 4 °C, and the temperature being shifted to 37 °C allowed for the assembly process of tubulin. The turbidity caused by tubulin polymerization was measured by the increased absorbance at 450 nm. The increase in absorbance obtained for the control sample (without the ligand), which we considered to be 100% tubulin polymerization (0% inhibition), compared with the increase in absorbance determined for the sample containing ligands yielded the degree of tubulin polymerization inhibition (TPI), which is expressed as a percentage value. For the compounds displaying TPI values over 50% at 10 µM, the IC50 value for TPI was calculated. Measurements were performed in triplicate in two independent experiments using microtubular protein from different preparations.

Row | Structure (SMILES) | Tubulin polymerization inhibition (in words)
36 | COc1ccc2nc(N(C=O)Cc3[nH]cnc3C)sc2c1 [Compound 16, N-(6-methoxybenzo[d]thiazol-2-yl)-N-((4-methyl-1H-imidazol-5-yl)methyl)formamide] | not able to inhibit tubulin polymerization
37 | COc1ccc2nc(N(C=O)Cc3ccc4ccccc4c3)sc2c1 [Compound 18, N-(6-methoxybenzo[d]thiazol-2-yl)-N-(naphthalen-2-ylmethyl)formamide] | not able to inhibit tubulin polymerization

Same assay, conditions: compounds tested at 10 µM, with respect to the negative control

Row | Structure (SMILES) | % TPI [%]
38 | COc1ccc2nc(N(C=O)Cc3[nH]cnc3C)sc2c1 [Compound 16, N-(6-methoxybenzo[d]thiazol-2-yl)-N-((4-methyl-1H-imidazol-5-yl)methyl)formamide] | 0
39 | COc1ccc2nc(N(C=O)Cc3ccc4ccccc4c3)sc2c1 [Compound 18, N-(6-methoxybenzo[d]thiazol-2-yl)-N-(naphthalen-2-ylmethyl)formamide] | 0

Same assay, conditions: concentration inhibiting 50% of microtubular protein polymerization in vitro; read-out: TPI IC50

Row | Structure (SMILES) | IC50 [µM]
40 | COc1ccc2nc(N(C=O)Cc3[nH]cnc3C)sc2c1 [Compound 16, N-(6-methoxybenzo[d]thiazol-2-yl)-N-((4-methyl-1H-imidazol-5-yl)methyl)formamide] | > 10
41 | COc1ccc2nc(N(C=O)Cc3ccc4ccccc4c3)sc2c1 [Compound 18, N-(6-methoxybenzo[d]thiazol-2-yl)-N-(naphthalen-2-ylmethyl)formamide] | > 10

Tested on: tumor cell lines
Assay: Cell growth inhibition assay (MTT), summary statements over several cell lines
Assay type: cell-based
Settings: glioblastoma cell lines; read-out: antiproliferative IC50
Description: as §2

Row | Structure (SMILES) | IC50 [µM]
42 | Cn1nnc2c(C(N)=O)ncn2c1=O [TMZ, temozolomide, reference compound] | > 100
